# Assay results reported in patent US20190002585A1, “CANCER TREATMENT METHODS AND COMPOSITIONS” (The Cleveland Clinic Foundation, priority 2017, published 2019).
# Where a SMILES comes first, the peptide text is derived from it. The star is where a group is joined. Cbz = O=C(OCc1ccccc1)*; CH2F = FC*
# Experiments:
# [1] = system: primary alveolar epithelial cells HAEC; test: Cell death assay, IncuCyte live-cell imaging; type: cell-based, human; conditions: FIG. 7
# Protocol: (§1) Cell lines and viruses. Human A549 cells (ATCC® CCL-185™) validated by STR analysis were cultured in RPMI 1640 medium (Gibco) supplemented with 10% fetal bovine serum (FBS), 100U/ml penicillin and 100 μg/ml streptomycin. PC3, DU145 and C4-2 cells were grown in RPMI with 10% FBS. HAEC, BEAS 2B and BETA cells were grown in LHC-8 (Biofluids/Biosource, catalog #P141-500) supplemented with 0.1% epinehrin (Biofluids/Biosource, catalog #355-002), 3.3 mM retinoic acid (Biofluids/Biosource, catalog #348-001) and penicillin-streptomycin-fungizone (Invitogen, catalog #15240-062) and were a gift from Drs. Suzy Comhair and Serpil Erzurum (Cleveland Clinic).
# (§2) Cells (20,000 per well) were seeded in 24-well plates or 8,000 cells per well in 96-well plates and treated as stated in figure legends. The cells were incubated with 250 nM Sytox-Green dye (Thermo Fisher), a nucleic acid stain that is an indicator of dead cells and which is impermeant to live cells, and 250 nM of cell permeable dye Syto™ 60-Red (ThermoFisher), which allows quantification of the total number of cells present in each field, using an IncuCyte Live-Cell Imaging System and software (Essen Instruments 2015A) for 72 hours. Cell death was measured by counting the green objects per/well (dead cells, green) and then normalizing to the total number of cells per/well (red objects) at each time point using IncuCyte software.
# [2] = system: bronchial epithelial cells BETA; test: Cell death assay, IncuCyte live-cell imaging; type: cell-based, human; conditions: FIG. 7
# Protocol: as §1, §2
# [3] = system: bronchial epithelium BEAS 2B cells; test: Cell death assay, IncuCyte live-cell imaging; type: cell-based, human; conditions: FIG. 7
# Protocol: as §1, §2
# [4] = system: MAVS-RNase L DKO A549 cells; test: Cell death assay, IncuCyte real-time imaging; type: cell-based, human; conditions: concentrations up to 100 uM
# Protocol: as §2, with “SytoTM” for “Syto™”, “[…])” for “2015A)”
# [5] = system: MAVS KO A549 cells; test: Cell death assay, IncuCyte real-time imaging; type: cell-based, human; conditions: different doses of AZA, compared with WT
# Protocol: as §2, with “SytoTM” for “Syto™”, “[…])” for “2015A)”
# [6] = system: ADAR1 p150 KO A549 cells; test: Cell survival, IncuCyte; type: cell-based, human; design: dose or concentration left out as unconfirmed; conditions: AZA (FIG. 19C)
# Protocol: as §2
# [7] = system: WT A549 cells; test: Cell death assay, IncuCyte real-time imaging, dual dye; type: cell-based
# Protocol: as §1, §2
# [8] = system: RNase L KO A549 cells; test: as above; type: cell-based, human; design: AZA sensitivity: dose or concentration left out as unconfirmed
# Protocol: as §1
# (§3) The A549 RNase L KO cells were described previously. Additional knockout cells were generated using the CRISPR Cas9 system. The sgRNA sequences were chosen from a published database. The guide RNA sequences were synthesized as DNA oligonucleotides by IDT. Primers were annealed, phosphorylated and ligated into vector LentiCRISPR v2 (Addgene 52961) that was prepared by digestion with BsmBI. The resulting plasmids were transformed into Stbl3 chemically competent cells (Invitrogen) and grown on a bacterial culture plate at 37° C. Colonies were screened by PCR using the U6 primer and gene specific reverse primer to generate approximately 300 bp product. Positive clones were cultured and plasmid DNA was prepared and sequence verified using the U6 primer. The AKAP7 sgRNA sequences are: sgAKAP7-2 FW CACCGTGAGCGACTGGCCAAAGCAA (SEQ ID NO:1) and sgAKAP7-2 REV AAACTTGCTTTGGCCAGTCGCTCA C (SEQ ID NO:2). The PDE12 sgRNA sequences are: sgPDE12_10.FW CACCGGGATGCCTGGCAAGACGGCG (SEQ ID NO:3) and sgPDE12_10.REV AAACCGCCGTCTTGCCAGGCATCCC (SEQ ID NO:4). Cell cloning was done by limited dilution. The CRISPR vector, pLenti-sgRL-6, was used to knockout RNase L in PC3 cells as we described for RNase L KO A549 cells. To obtain the PDE12/AKAP7 DKO cells, a PDE12 knockout A549 cell line was infected with pseudo lentiviruses expression sgRNA for AKAP7 followed by single cell cloning. The PDE12/RNase L DKO cells were obtained by infecting the RNase L KO A549 cells with the pseudo lentivirus expressing sgRNA for AKAP7 followed by single cell cloning. Resulting clones were screened for knock-out of expression using Western Blots with anti-PDE12 antibody (Abcam ab87738), anti-AKAP7 (Proteintech: Cat#12591-1-AP) antibody or monoclonal antibody against human RNase L [13].
# as §2
# [9] = system: MAVS-ADAR1 DKO A549 cells; test: Cell survival, IncuCyte; type: cell-based, human; conditions: 50 mM AZA (FIG. 19), compared with WT cells
# Protocol: (§4) In FIG. 19 WT, RNase L-ADAR1 DKO, MAVS-ADAR1 DKO, MAVS-ADAR1-RNase L TKO and p150 ADAR1 isoform KO A549 cells were incubated without AZA (panel A) or with […] AZA (panels B and C). Percent survival after […] AZA treatment was calculated using an IncuCyte system. The data are average=±SD from three independent replicates. Similar data were obtained from two additional independent experiments.
# as §2
# [10] = system: MAVS-ADAR1-RNase L TKO A549 cells; test: Cell survival, IncuCyte; type: cell-based, human; conditions: 50 μM AZA (FIG. 19)
# Protocol: as §4, §2
# [11] = system: RNase L-ADAR1 DKO A549 cells; test: Cell survival, IncuCyte; type: cell-based, human; conditions: 50 mM AZA (FIG. 19)
# Protocol: as §4, §2
# [12] = system: WT A549 cells; test: Apoptosis assay (caspase 3/7), IncuCyte; type: cell-based, human
# Protocol: (§5) Cells were seeded in 96-well plates and treated with Aza as above. The cells were incubated with IncuCyte™ Kinetic Caspase-3/7 Apoptosis Assay Reagent (green) according to manufacturer's protocol and with 250 nM of Syto Red dye (ThermoFisher) for 24 hours. The apoptotic index was determined by determining the total count [green Integrated Intensity (GCU×μm^2/Image)] and then normalizing by count confluence (percent) using IncuCyte software.
# [13] = system: MAVS KO A549 cells; test: Apoptosis assay (caspase 3/7), IncuCyte; type: cell-based, human; conditions: 50 uM AZA, compared with WT
# Protocol: as §5
# [14] = system: MAVS/RNase L DKO A549 cells; test: Apoptosis assay (caspase 3/7), IncuCyte; type: cell-based, human; conditions: 50 uM AZA
# Protocol: as §5
# [15] = system: RNase L KO A549 cells; test: Apoptosis assay (caspase 3/7), IncuCyte; type: cell-based, human; conditions: 50 uM AZA
# Protocol: as §5
# [16] = system: AKAP7-PDE12 DKO A549 cells; test: Cell survival, IncuCyte; type: cell-based, human; conditions: 50 uM AZA (FIG. 11)
# Protocol: as §3, with “To obtain the PDE12/AKAP7 DKO cells, a PDE12 knockout A549 cell line was infected with pseudo lentiviruses expression sgRNA for AKAP7 followed by single cell cloning. The PDE12/RNase L DKO cells were obtained by infecting the RNase L KO A549 cells with the pseudo lentivirus expressing sgRNA for AKAP7 followed by single cell cloning. Resulting clones were screened for knock-out of expression using Western Blots with anti-PDE12 antibody (Abcam ab87738), anti-AKAP7 (Proteintech: Cat#12591-1-AP) antibody or monoclonal antibody against human RNase L [13].” left out
# as §2
# [17] = system: AKAP7 KO A549 cells; test: Cell survival, IncuCyte; type: cell-based, human; conditions: 50 uM AZA (FIG. 11)
# Protocol: as §3, with “To obtain the PDE12/AKAP7 DKO cells, a PDE12 knockout A549 cell line was infected with pseudo lentiviruses expression sgRNA for AKAP7 followed by single cell cloning. The PDE12/RNase L DKO cells were obtained by infecting the RNase L KO A549 cells with the pseudo lentivirus expressing sgRNA for AKAP7 followed by single cell cloning. Resulting clones were screened for knock-out of expression using Western Blots with anti-PDE12 antibody (Abcam ab87738), anti-AKAP7 (Proteintech: Cat#12591-1-AP) antibody or monoclonal antibody against human RNase L [13].” left out
# as §2
# [18] = system: PDE12 KO A549 cells; test: Cell survival, IncuCyte; type: cell-based, human; conditions: 50 uM AZA (FIG. 11)
# Protocol: as §3, with “To obtain the PDE12/AKAP7 DKO cells, a PDE12 knockout A549 cell line was infected with pseudo lentiviruses expression sgRNA for AKAP7 followed by single cell cloning. The PDE12/RNase L DKO cells were obtained by infecting the RNase L KO A549 cells with the pseudo lentivirus expressing sgRNA for AKAP7 followed by single cell cloning. Resulting clones were screened for knock-out of expression using Western Blots with anti-PDE12 antibody (Abcam ab87738), anti-AKAP7 (Proteintech: Cat#12591-1-AP) antibody or monoclonal antibody against human RNase L [13].” left out
# as §2
# [19] = system: WT A549 cells; test: PARP cleavage, Western blot; type: cell-based, human; conditions: 50 uM AZA for 48 hours
# Protocol: (§6) PARP cleavage was monitored in Western blots probed with [anti PAPR1 (rabbit polyclonal) (Santa Cruz Biotechnology)]. β-actin levels were monitored with 3-actin (mouse monoclonal) antibody (Sigma-Aldrich) to evaluated as a control.
# (§7) Prior to lysis, cells were washed twice in cold phosphate-buffered saline (PBS). Cell extracts were prepared with lysis buffer supplemented with phosphatase/protease inhibitors followed by incubation on ice for 20 min. Lysates were subjected to centrifugation at 12,000 g for 10 min, and the supernatants collected and protein quantified by Bradford assays (BioRaD). Cell lysates ([…]) were separated on 8% or 10% SDS PAGE gels and proteins were transferred to polyvinylidene difluoride membranes (0.45 μm) (BioRaD) and probed with antibodies according to the different manufacturers' recommendations.
# [20] = system: RNase L KO A549 cells; test: PARP cleavage, Western blot; type: cell-based, human; conditions: 50 uM AZA for 48 hours
# Protocol: as §6, §7
# [21] = system: RNASEL KO A549 cells with knock-in of WT RNase L; test: Cell death assay, IncuCyte, RNase L knock-in; type: cell-based, human; conditions: 50 μM AZA for 72 hr
# Protocol: (§8) Both WT and R667A RNase L have a FLAG epitope attached. Cells were lysed after 72 hr and proteins were analyzed by Western blot probed with anti-Flag M2 antibody (Sigma-Aldrich) (upper) and anti-β-actin antibody (Sigma-Aldrich) (lower). […] Dead cells and total cells were determined with an IncuCyte real-time imaging system using a dual-dye method. A minimum of three wells were treated with each experimental condition. The data are average±SD from three independent replicates. […] Three separate wells were treated with each experimental condition and a minimum of 4 image fields (>10,000 cells/well) were analyzed per well.
# as §2
# [22] = system: RNASEL KO A549 cells with knock-in of mutant RNase L (R667A); test: Cell death assay, IncuCyte, RNase L knock-in; type: cell-based, human; conditions: 50 μM AZA for 72 hr
# Protocol: as §8, §2
# [23] = system: DU145 prostate cancer cells; test: Cell death assay, IncuCyte real-time imaging; type: cell-based, human; conditions: FIG. 8
# Protocol: as §1, §2
# [24] = system: PC3 prostate cancer cells; test: Cell death assay, IncuCyte real-time imaging; type: cell-based, human; conditions: FIG. 9
# Protocol: as §1, §2
# [25] = system: C4-2 prostate cancer cells; test: Cell death assay, IncuCyte real-time imaging; type: cell-based, human; conditions: FIG. 8
# Protocol: as §1, §2
# [26] = system: OAS (1, 2, 3) triple KO HME cells; test: Cell death assay, IncuCyte; type: cell-based, human; conditions: AZA 50 μM, compared with WT HME
# Protocol: as §8, §2
structure (smiles),measurement,setting,value
"Nc1ncn([C@@H]2O[C@H](CO)[C@@H](O)[C@H]2O)c(=O)n1 [AZA, 5-azacytidine]",AZA sensitivity,[1],resistant
same,AZA sensitivity,[2],resistant
same,AZA sensitivity,[3],resistant
same,sensitivity to AZA treatment,[4],almost completely resistant
same,sensitivity to AZA treatment,[5],slightly less sensitive
same,cytotoxic effect of AZA,[6],highly sensitive
same,cell death,"[7]; 50 uM AZA, by 60 hours of treatment",85%
same,cell survival,[7]; AZA 25 uM by itself,57%
same,AZA sensitivity,"[7]; FIG. 7, compared with normal lung epithelia",highly sensitive
same,cytotoxicity of AZA with ionizing radiation,"[7]; IR 10 Gy for 10 min, then AZA 25 μM or 12.5 μM for 50 hr",potentiates the cytotoxicity of AZA
same,cell death,[8]; 50 uM AZA,9%
same,cell death,[8]; 100 uM AZA,17%
same,sensitivity to treatment (cell survival),"[8]; AZA 25 uM, 2-5A 1 uM transfected, or both",completely resistant
same,AZA sensitivity,[8]; AZA (FIG. 19),AZA resistant
same,AZA sensitivity,[9],enhanced AZA sensitivity
same,AZA sensitivity,[10],AZA resistant
same,AZA sensitivity,[11],AZA resistant
same,caspase3/7 activation,[12]; 50 uM AZA,high levels of caspase3/7 activation
same,caspase3/7 activation,[13],at best only a small effect in reducing caspase3/7 activation
same,caspase3/7 activation,[14],highly resistant
same,caspase3/7 activation,[15],resistant
same,cell survival,[16],17%
same,cell survival,[17],56%
same,cell survival,[18],37%
same,cleaved PARP,[19],large increase in cleaved PARP
same,PARP cleavage,[20],only a slight increase
same,sensitivity to AZA treatment,[21],sensitized cells to AZA treatment
same,sensitivity to AZA treatment,[22],did not
same,induction of cell death by AZA,[23],sensitive
same,induction of cell death by AZA,[24],sensitive
same,induction of cell death by AZA,[25],relatively resistant
same,sensitivity to AZA,[26],relatively resistant
"Nc1ncn([C@H]2C[C@H](O)[C@@H](CO)O2)c(=O)n1 [DAC, 5-aza-2′-deoxycytidine]",cell survival,"[7]; 25 uM DAC, up to 70 hrs",56%
same,cell survival,"[7]; 50 uM DAC, up to 70 hrs",47%
same,sensitivity to DAC relative to AZA,[7]; up to 70 hrs,less sensitive
same,effect on survival,"[8]; DAC, up to 70 hrs",no effect
CC(NC(=O)C(NC(=O)OCc1ccccc1)C(C)C)C(=O)NC(CC(=O)O)C(=O)CF (stereo not drawn) [Z-VAD] (Cbz-Val-Ala-Asp-CH2F; configuration not given here),effect on caspase3/7 activation by AZA,[12]; 50 uM Z-VAD in presence of 50 uM AZA,greatly suppressed caspase3/7 activation
